Species on record: Rattus norvegicus
Assay: DrugMatrix - Regimen: Daily Repeat
Format: toxicity, organism-based, Sprague-Dawley
Parameters: regimen Daily Repeat, gender Male, age 6-8 weeks
Conditions: in vivo, po, 20 mg/kg, route oral GAVAGE, dose level High, vehicle 100 % WATER; for BASOPHIL / EOSINOPHIL / ERYTHROCYTE COUNT / HEMATOCRIT / HEMOGLOBIN / LEUKOCYTE COUNT / LYMPHOCYTE / MEAN CORPUSCULAR HEMOGLOBIN / MEAN CORPUSCULAR HEMOGLOBIN CONCENTRATION / MEAN CORPUSCULAR VOLUME / MONOCYTE / NEUTROPHIL / PLATELET COUNT: tissue Blood; for ALANINE AMINOTRANSFERASE / ALBUMIN / ALKALINE PHOSPHATASE / ASPARTATE AMINOTRANSFERASE / BLOOD UREA NITROGEN / CARBON DIOXIDE / CHLORIDE / CHOLESTEROL / CREATINE PHOSPHOKINASE / CREATININE / GLUCOSE / LACTATE DEHYDROGENASE / LIPASE / PHOSPHORUS / POTASSIUM / SODIUM / TOTAL BILIRUBIN / TOTAL PROTEIN / URIC ACID: tissue Plasma

C=CC=O [ACROLEIN]
BASOPHIL (72 h, time 3 day): 0.17% | EOSINOPHIL (72 h, time 3 day): 1.23% | ERYTHROCYTE COUNT (72 h, time 3 day): 6.79 x10E6/uL | HEMATOCRIT (72 h, time 3 day): 44.43% | HEMOGLOBIN (72 h, time 3 day): 14.33 G/DL | LEUKOCYTE COUNT (72 h, time 3 day): 13.23 x10E3/uL | LYMPHOCYTE (72 h, time 3 day): 50.33% | MEAN CORPUSCULAR HEMOGLOBIN (72 h, time 3 day): 21.17 pg | MEAN CORPUSCULAR HEMOGLOBIN CONCENTRATION (72 h, time 3 day): 32.27 G/DL | MEAN CORPUSCULAR VOLUME (72 h, time 3 day): 65.47 fL | MONOCYTE (72 h, time 3 day): 5.93% | NEUTROPHIL (72 h, time 3 day): 40.03% | PLATELET COUNT (72 h, time 3 day): 1336 x10E3/uL | ALANINE AMINOTRANSFERASE (72 h, time 3 day): 33.67 u/L | ALBUMIN (72 h, time 3 day): 3.47 G/DL | ALKALINE PHOSPHATASE (72 h, time 3 day): 159 u/L | ASPARTATE AMINOTRANSFERASE (72 h, time 3 day): 72.67 u/L | BLOOD UREA NITROGEN (72 h, time 3 day): 13 mg/dL | CARBON DIOXIDE (72 h, time 3 day): 27.67 mmol/L | CHLORIDE (72 h, time 3 day): 105.67 MEQ/L | CHOLESTEROL (72 h, time 3 day): 122.33 mg/dL | CREATINE PHOSPHOKINASE (72 h, time 3 day): 216.67 u/L | CREATININE (72 h, time 3 day): 0.43 mg/dL | GLUCOSE (72 h, time 3 day): 151.67 mg/dL | LACTATE DEHYDROGENASE (72 h, time 3 day): 35 u/L | LIPASE (72 h, time 3 day): 24.33 u/L | PHOSPHORUS (72 h, time 3 day): 11.6 mg/dL | POTASSIUM (72 h, time 3 day): 5.87 MEQ/L | SODIUM (72 h, time 3 day): 148 MEQ/L | TOTAL BILIRUBIN (72 h, time 3 day): 0.27 mg/dL | TOTAL PROTEIN (72 h, time 3 day): 5.43 G/DL | URIC ACID (72 h, time 3 day): 1.27 mg/dL | BASOPHIL (120 h, time 5 day): 0.23% | EOSINOPHIL (120 h, time 5 day): 0.37% | ERYTHROCYTE COUNT (120 h, time 5 day): 7 x10E6/uL | HEMATOCRIT (120 h, time 5 day): 45.17% | HEMOGLOBIN (120 h, time 5 day): 14.17 G/DL | LEUKOCYTE COUNT (120 h, time 5 day): 18.4 x10E3/uL | LYMPHOCYTE (120 h, time 5 day): 56.63% | MEAN CORPUSCULAR HEMOGLOBIN (120 h, time 5 day): 20.2 pg | MEAN CORPUSCULAR HEMOGLOBIN CONCENTRATION (120 h, time 5 day): 31.37 G/DL | MEAN CORPUSCULAR VOLUME (120 h, time 5 day): 64.53 fL | MONOCYTE (120 h, time 5 day): 5.23% | NEUTROPHIL (120 h, time 5 day): 35.47% | PLATELET COUNT (120 h, time 5 day): 1464.67 x10E3/uL | ALANINE AMINOTRANSFERASE (120 h, time 5 day): 36.33 u/L | ALBUMIN (120 h, time 5 day): 3.33 G/DL | ALKALINE PHOSPHATASE (120 h, time 5 day): 202.33 u/L | ASPARTATE AMINOTRANSFERASE (120 h, time 5 day): 71 u/L | BLOOD UREA NITROGEN (120 h, time 5 day): 15 mg/dL | CARBON DIOXIDE (120 h, time 5 day): 23.67 mmol/L | CHLORIDE (120 h, time 5 day): 110.33 MEQ/L | CHOLESTEROL (120 h, time 5 day): 106 mg/dL | CREATINE PHOSPHOKINASE (120 h, time 5 day): 207.67 u/L | CREATININE (120 h, time 5 day): 0.27 mg/dL | GLUCOSE (120 h, time 5 day): 140 mg/dL | LACTATE DEHYDROGENASE (120 h, time 5 day): 58 u/L | LIPASE (120 h, time 5 day): 40.33 u/L | PHOSPHORUS (120 h, time 5 day): 11.4 mg/dL | POTASSIUM (120 h, time 5 day): 5.6 MEQ/L | SODIUM (120 h, time 5 day): 152.33 MEQ/L | TOTAL BILIRUBIN (120 h, time 5 day): 0.23 mg/dL | TOTAL PROTEIN (120 h, time 5 day): 5.37 G/DL | URIC ACID (120 h, time 5 day): 1.73 mg/dL | BASOPHIL ([…], time 14 day): 0.9% | EOSINOPHIL ([…], time 14 day): 0.5% | ERYTHROCYTE COUNT ([…], time 14 day): 7.34 x10E6/uL | HEMATOCRIT ([…], time 14 day): 43.1% | HEMOGLOBIN ([…], time 14 day): 14.5 G/DL | LEUKOCYTE COUNT ([…], time 14 day): 33.86 x10E3/uL | LYMPHOCYTE ([…], time 14 day): 32.7% | MEAN CORPUSCULAR HEMOGLOBIN ([…], time 14 day): 19.8 pg | MEAN CORPUSCULAR HEMOGLOBIN CONCENTRATION ([…], time 14 day): 33.6 G/DL | MEAN CORPUSCULAR VOLUME ([…], time 14 day): 58.8 fL | MONOCYTE ([…], time 14 day): 5.2% | NEUTROPHIL ([…], time 14 day): 59.1% | PLATELET COUNT ([…], time 14 day): 2095 x10E3/uL | ALANINE AMINOTRANSFERASE ([…], time 14 day): 40 u/L | ALBUMIN ([…], time 14 day): 3.6 G/DL | ALKALINE PHOSPHATASE ([…], time 14 day): 220 u/L | ASPARTATE AMINOTRANSFERASE ([…], time 14 day): 68 u/L | BLOOD UREA NITROGEN ([…], time 14 day): 13 mg/dL | CARBON DIOXIDE ([…], time 14 day): 31 mmol/L | CHLORIDE ([…], time 14 day): 101 MEQ/L | CHOLESTEROL ([…], time 14 day): 116 mg/dL | CREATINE PHOSPHOKINASE ([…], time 14 day): 267 u/L | CREATININE ([…], time 14 day): 0.4 mg/dL | GLUCOSE ([…], time 14 day): 145 mg/dL | LACTATE DEHYDROGENASE ([…], time 14 day): 109 u/L | LIPASE ([…], time 14 day): 33 u/L | PHOSPHORUS ([…], time 14 day): 9.2 mg/dL | POTASSIUM ([…], time 14 day): 6.6 MEQ/L | SODIUM ([…], time 14 day): 147 MEQ/L | TOTAL BILIRUBIN ([…], time 14 day): 0.5 mg/dL | TOTAL PROTEIN ([…], time 14 day): 5.7 G/DL | URIC ACID ([…], time 14 day): 2.5 mg/dL
